Test results from patent US20240317762A1, “PHTHALAZINONE-BASED PARP-1 INHIBITORS” (Oregon Health & Science University, priority 2021, published 2024).
Values joined by “and” are separate entries in the source; they are usually repeats but may differ in a detail not shown here. Equal values may be shown once.

Legend:
[1] = target: T1, R878A PARP-1 (Homo sapiens, UniProt P09874, R878A); assay: catalytic activity of PARP-1 mutant expressed in HEK 293 cells, R878A; type: biochemical; details: 3 μM AZ0108
[2] = test system: Ewing sarcoma cell line EW-8; assay: ES-8 viability screen (CellTiter-Glo); type: cell-based
Procedure: Cell viability was measured using the CellTiter-Glo (Promega, G7573) assay and read using an Envision (PerkinElmer) plate reader. Compound source plates (96-well) were prepared by solubilizing each drug in DMSO to a maximum concentration of 1-50 mM, then arraying samples in 10-point dose-response with 3-fold dilution. Positive and negative controls (staurosporine at 10 mM and DMSO, respectively) were added to the source plates. Drug was transferred from the source plate to the assay plate using a Biomek FX (Beckman Coulter) liquid handler equipped with a pin tool which transferred ˜100 nl into a final volume of 100 μl, resulting in ˜1000-fold dilution. At least two biological replicates (assay performed on different day with same drug plate and independent cell preparation) were obtained for each drug. To analyze the assay, the relative light unit signal in each well was first log 2 transformed, then normalized by subtracting the mean of the negative controls wells on each plate.
FIGS. 6A-6E. […] 0.1 μM ad-olaparib (chemical structure indicated in panel a) was added to the cells for 1 hour before undergoing a UV treatment for 5 minutes in cold PBS. Cells were lysed and sonicated in PBS (1% Triton X-100+1% SDS), clicked with TAMRA-azide and run out on SDS-PAGE. The gel was imaged for TAMRA and probed for PARP-1 (Bethyl Laboratories), and alpha-tubulin (X). FIGS. 6B, 6D) Quantification of western blot images. TAMRA or ADPr values are normalized to PARP-1 within each replicate and plotted as percentage compared to DMSO. Error bars indicate SEM (n=3-4). Statistical significance of off-rate calculated via multiple t-tests (p<0.05). […] Cells were subsequently treated with PARGi (10 μM) for 30 minutes, lysed using RIPA buffer, run out on SDS-PAGE, and probed for ADPr (Cell Signaling) and PARP-1 (Bethyl Laboratories). FIG. 6E) ES-8 cells were treated with indicated concentration of inhibitors for 72 hours before measuring cell viability using the CellTiter-Glo kit (Promega G7573). IC50 values were calculated using R statistical software.

[3] = test system: Ser345 phosphorylation of Chk1 in HEK 293 cells; assay: western blot analysis of phosphorylation of Chk1; details: HEK 293 cells, 18 hours
[4] = target: T2, PARP-1 (Homo sapiens, UniProt P09874); assay: in vitro fluorescence polarization DNA competition assay; details: 25 μM compound; PARP-1 40 nM; nicked dumbbell DNA probe 20 nM
Text: (§1) The full-length WT PARP-1 protein used in these assays was purified as described previously (30).

[5] = target: T2, PARP-1; assay: fluorescence polarization DNA binding affinity assay; details: 5 μM inhibitor
Text: as §1

[6] = target: T1, R878A PARP-1; assay: fluorescence polarization DNA competition and affinity assays, R878A mutant; type: binding; details: with AZ0108
Procedure: FIG. 4B) Helical domain (pink cartoon) movement observed during the simulation, the red arrows indicate length and direction of movement. FIG. 4C) The residue-residue distance observed between the Ca atoms R878-D770 and Y889-V758, the increased distance sampling corresponds to the helical domain movement. FIG. 4D) PARP-1 WT, D770A, or R878A (40 nM) was incubated with a dumbbell DNA probe carrying an internal FAM group and a central nick at 20 nM with or without compound (25 μM) for 30 minutes. An unlabeled competitor was added and the decrease in fluorescence polarization was measured across time. FIG. 4E) The Kd of PARP-1 WT, D770A, or R878A for a DNA dumbbell probe containing a central nick (5 nM) was measured in a fluorescence polarization assay with and without inhibitor (5 μM). Error bars represent Standard Error of the Mean (SEM) (n=3).

[7] = test system: HEK 293 PARP-1 KO cells; assay: cell proliferation (MTT) assay in PARP-1 KO cells; type: cell-based, human; details: PARP-1 KO vs control HEK 293 cells, MTT 72 h
Text: Error bars represent SEM. […] Error bars represent SEM. […] Error bars represent SEM.

[8] = test system: pan-nuclear γH2AX in HEK 293T cells; assay: γH2AX immunofluorescence; type: cell-based, human
Procedure: HEK 293T or HEK 293 PARP-1 KO cells were seeded onto poly-d-lysine treated glass coverslips and treated with indicated concentrations of inhibitors for 18 hours. Cells were then washed with 1×PBS and fixed using 4% Sucrose/4% Paraformaldehyde in PBS for 20 minutes. After three washes in 1×PBS, cells were permeabilized in 0.3% Triton X-100 in PBS for 5 minutes followed by an additional three washes in 1×PBS. Coverslips were blocked in 3% BSA/0.1% Triton X-100 in PBS for 1 hour and then placed in primary anti-rabbit phosphoH2Ax antibody (1:200, Cell Signaling) overnight at 4° C. The next morning, cells were washed three times in 1×PBS and treated with blocking solution, 3% BSA/0.1% Triton X-100 in PBS, for 30 minutes before being placed in secondary anti-rabbit Alexa Fluor 647 (1:1000 Jackson Immuno) for 1 hour at RT. After three subsequent 1×PBS washes, coverslips were mounted using ProLong Gold antifade reagent with DAPI (Invitrogen). All immunofluorescence images were taken on a Zeiss ApoTome2 on Axiolmager and analyzed using Zeiss software. Mean intensity of the Alexa Fluor 647 signal was measured after imposing DAPI masks over the nucleus of each cell. All cells within a 20× image, was analyzed (˜3000 cells/condition).
Cell are stained for DAPI and γH2AX. Scale bar indicates 50 μm. FIG. 2B) Quantification of panel a. […] Error bars represent SEM. […] Error bars represent SEM. […] Error bars represent SEM.

T2 sequence (P09874 whole entry): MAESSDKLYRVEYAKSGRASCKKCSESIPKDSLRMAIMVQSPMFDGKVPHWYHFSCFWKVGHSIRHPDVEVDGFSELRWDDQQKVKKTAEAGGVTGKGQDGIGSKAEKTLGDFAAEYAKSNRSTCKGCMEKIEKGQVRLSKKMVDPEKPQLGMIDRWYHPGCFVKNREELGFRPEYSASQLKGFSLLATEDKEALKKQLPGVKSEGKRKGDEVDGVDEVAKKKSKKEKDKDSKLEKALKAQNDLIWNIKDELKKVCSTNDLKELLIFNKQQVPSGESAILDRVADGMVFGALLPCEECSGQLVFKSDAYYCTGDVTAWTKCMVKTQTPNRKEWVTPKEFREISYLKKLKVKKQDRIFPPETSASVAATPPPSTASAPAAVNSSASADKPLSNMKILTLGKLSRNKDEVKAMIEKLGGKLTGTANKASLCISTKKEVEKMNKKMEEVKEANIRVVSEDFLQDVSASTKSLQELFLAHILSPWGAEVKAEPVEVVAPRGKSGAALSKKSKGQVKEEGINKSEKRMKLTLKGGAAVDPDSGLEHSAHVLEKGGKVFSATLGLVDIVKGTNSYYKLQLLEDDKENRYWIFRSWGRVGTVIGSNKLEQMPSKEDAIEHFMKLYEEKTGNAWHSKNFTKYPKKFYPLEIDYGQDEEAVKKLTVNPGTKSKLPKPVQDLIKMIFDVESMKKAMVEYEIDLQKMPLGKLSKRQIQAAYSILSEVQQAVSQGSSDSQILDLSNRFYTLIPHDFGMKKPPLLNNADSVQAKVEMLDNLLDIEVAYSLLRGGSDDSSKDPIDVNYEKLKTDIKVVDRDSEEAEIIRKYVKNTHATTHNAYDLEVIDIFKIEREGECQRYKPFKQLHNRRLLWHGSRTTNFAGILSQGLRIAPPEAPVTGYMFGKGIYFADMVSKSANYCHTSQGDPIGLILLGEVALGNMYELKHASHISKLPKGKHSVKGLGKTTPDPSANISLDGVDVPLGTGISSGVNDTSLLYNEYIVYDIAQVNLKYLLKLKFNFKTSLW
T1 sequence (P09874 whole entry R878A): as the sequence (P09874 whole entry) above, with R878A counted along it

## (S)-4-(difluoro(3-(6-methyl-3-(trifluoromethyl)-5,6,7,8-tetrahydro-[1,2,4]triazolo[4,3-a]pyrazine-7-carbonyl)phenyl)methyl)phthalazin-1(2H)-one [AZ0108]
[1]
  inhibition of R878A PARP-1 activity: inhibited
[2]; ratio of EC50 values
  Fold Difference to Pip6: 86
[2]; viability, 72 h
  EC50: 20 nM and 20.9 nM
[3]
  Ser345 phosphorylation of Chk1: induced Ser345 phosphorylation of Chk1
[4]
  exchange of the PARP-1:labled DNA complex with an unlabeled DNA competitor: substantially reduced
[5]; DNA dumbbell probe with central nick 5 nM
  increase of the affinity of PARP-1 for DNA: 4 fold
[5]; compared to DMSO control
  effect on the affinity of PARP-1 for nicked DNA: more pronounced effect on DNA binding to PARP-1
[6]
  DNA binding to R878A PARP-1: similarly unaffected
[7]
  increase in the EC50 value on cell growth by KO of PARP-1: 43 fold
[8]; HEK 293T cells, 18 hours
  pan-nuclear γH2AX induction: dose-dependent increase
[8]; HEK293 control vs PARP-1 KO cells, 3 μM AZ0108
  dependence of pan-nuclear γH2AX signal on PARP-1: dependent on the presence of PARP-1
